Measurements from paper PMC5989765, “The safety, tolerability, and pharmacokinetic profile of GSK2838232, a novel 2nd generation HIV maturation inhibitor, as assessed in healthy subjects” (Pharmacology Research & Perspectives, 2018).
Like-named read-outs stand apart in the source and are kept apart here.

Assays:
[1] = in vitro, across all species; cited from earlier work
[2] = Study 200912: single dose 100-200 mg, SDD versus nonmicronized API PiB, healthy subjects; type: in vivo, human; settings: for Cmax / AUC / half-life / Tmax / concentration at 24 h: human, plasma, oral; for Cmax / AUC / half-life / Tmax / concentration at 24 h / CL/F: fasted; for Cmax / AUC / half-life / CL/F: geometric mean (95% CI); for AUC: read-out: AUC(0‐∞); for half-life: read-out: t½ (converted); for Tmax / concentration at 24 h: median (range); for concentration at 24 h: read-out: C24
Source text: This was a double‐blind, randomized, placebo‐controlled, single‐dose escalation study to investigate the safety, tolerability, and PK of higher single doses of GSK2838232 (Part A) and to evaluate the relative bioavailability of the SDD and crystalline Active Pharmaceutical Ingredient (API) of GSK2838232 (Part B) in healthy subjects dosed as PiB.
Part A was originally planned as a double‐blind, randomized, placebo‐controlled, 4‐period, single‐dose escalation design. Subjects were randomized 3:1 to receive GSK2838232 or placebo. Periods 1 and 2 investigated dosing with 200 mg SDD or nonmicronized API. Further planned dosing of RTV‐boosted single doses of 20 mg and 50 mg SDD was not performed due to early termination of the study to evaluate a serious adverse event (SAE) of a cardiovascular nature (see Safety discussion).
Part B was conducted in a separate group of subjects and was not dependent on the results of Part A. This was a randomized, open‐label, 3‐period, crossover design to assess the relative bioavailability of the nonmicronized API PiB versus the original SDD formulation at a 100 mg dose level (Periods 1 and 2). […] Subjects were randomized 1:1 to each dosing sequence.
Blood samples were taken via an indwelling cannula or by direct venipuncture, collected into a di‐potassium ethylenediaminetetraacetic acid (K2 EDTA) tube, and placed on wet ice. Samples were centrifuged at approximately 1500g for 10 minutes at approximately 4°C. Exactly 500 μL of the resulting plasma was transferred into labeled 1.4 mL Matrix TrakMate Tubes containing exactly 500 μL of 50 mmol/L citrate buffer, pH 4.0, and mixed well. When 500 μL of plasma was not able to be transferred, the ratio of plasma to citrate buffer was kept at 1:1. Buffered plasma samples were kept on ice and frozen at −70°C within 1 hour of collection. Plasma samples were analyzed for GSK2838232 using a validated analytical method based on protein precipitation, followed by high performance liquid chromatography with tandem mass spectrometry (HPLC/MS/MS) analysis.
Extracts were analyzed using HPLC (Shimadzu, Nexera, 30 series) and tandem mass spectrometry detection (HPLC‐MS/MS). The mass spectrometer used was an API‐5500 using IonSpray interface (500 V) in positive mode monitoring. The mass transitions were 809.5 to 255.1 and 816.5 to 262.1 for GSK2838232 and [2H7] GSK2838232 (the isotopically labeled internal standard), respectively. The chromatographic conditions utilized a Waters Acquity UPLC BEH C18 column (50 × 2.1 mm, 1.7 μm) with mobile phases consisting of 1 mmol/L ammonium formate:formic acid (100:0.005) (mobile phase A) and acetonitrile:formic acid (100:0.1) (mobile phase B) at a flow rate of 0.6 mL/min, with pump B at 63% held for 2 minutes. The assay was validated to have precision (%RSD) of 0.7%‐6.5% (within‐run) and 1.0%‐5.9% RSD (between‐run) and with accuracy (%bias) of 0.0%‐1.6%. […] The lower limit of quantification (LLQ) was 0.5 ng/mL, using a 50 μL aliquot of K2EDTA acidified plasma. The higher limit of quantification (HLQ) was 500 ng/mL.
The PK parameters were calculated by standard noncompartmental analysis based on actual sampling times using WinNonlin Version 6.3 or higher. Estimation of AUC used the linear up/log down trapezoidal rule.

[3] = preclinical; cited from earlier work
[4] = 20 mg, single 20 mg API PiB, with ritonavir (predosing 10 days), Study 200912
[5] = 100 mg, single 100 mg API PiB, without ritonavir, Study 200912
[6] = 100 mg, single 100 mg SDD PiB, without ritonavir, Study 200912
[7] = 200 mg, single 200 mg API PiB, without ritonavir, Study 200912
[8] = 200 mg, single 200 mg SDD PiB, without ritonavir, Study 200912

In the case of CC(C)C1=C2[C@H]3CC[C@@H]4[C@@]5(C)CC[C@H](OC(=O)CC(C)(C)C(=O)O)C(C)(C)[C@@H]5CC[C@@]4(C)[C@]3(C)CC[C@@]2([C@@H](O)CN(CCN(C)C)Cc2ccc(Cl)cc2)CC1=O [GSK2838232], the plasma protein binding [1] is listed as over 99.9%, the “dose proportionality of exposure” value ([2]; API, 100 mg to 200 mg single doses, Study 200912) is listed as “proportional increase in exposure” and the Cmax [2, 4] is listed as 4.89 ng/mL. The AUC [2, 4] was 224 ng·h/mL, the half-life [2, 4] was 41.1 h and the Tmax [2, 4] was 5.01 h. The concentration at 24 h [2, 4] was 2.56 ng/mL, the Cmax [2, 5] was 6.15 ng/mL and the AUC [2, 5] was 91.7 ng·h/mL. The half-life [2, 5] was 12.5 h, the Tmax [2, 5] was 3.64 h and the concentration at 24 h [2, 5] was 2.02 ng/mL. For the same molecule, the Cmax [2, 6] was 18.7 ng/mL, the AUC [2, 6] was 265 ng·h/mL and the half-life [2, 6] was 16.9 h. It also gave a Tmax [2, 6] of 2.75 h, a concentration at 24 h [2, 6] of 3.87 ng/mL and a Cmax [2, 7] of 13.6 ng/mL. For the same molecule, the AUC [2, 7] was 189 ng·h/mL, the half-life [2, 7] was 15.9 h and the Tmax [2, 7] was 2.76 h. The concentration at 24 h [2, 7] was 2.85 ng/mL, the Cmax [2, 8] was 29.3 ng/mL and the AUC [2, 8] was 381 ng·h/mL. For the same molecule, the half-life [2, 8] was 16.6 h, the Tmax [2, 8] was 1.75 h and the concentration at 24 h [2, 8] was 5.18 ng/mL. For the same molecule, the CL/F ([2]; single 20 mg API PiB, with ritonavir (predosing 10 days), Study 200912) was 89.2 (63.3, 126) L/h, the CL/F ([2]; single 100 mg API PiB, without ritonavir, Study 200912) was 1090 (670, 1774) L/h and the CL/F ([2]; single 100 mg SDD PiB, without ritonavir, Study 200912) was 378 (256, 559) L/h. For the same molecule, the CL/F ([2]; single 200 mg API PiB, without ritonavir, Study 200912) was 1060 (686, 1638) L/h, the CL/F ([2]; single 200 mg SDD PiB, without ritonavir, Study 200912) was 525 (399, 690) L/h and the “dose proportionality of exposure” value ([2]; single doses 100 mg to 200 mg, SDD formulation, without RTV) was “less‐than‐proportional increase”. The metabolism pathways [3] was “Phase I oxidation (primarily by cytochrome P450 [CYP] 3A4) and Phase II glucuronidation” and the “urinary excretion of drug‐related material” value [3] was at most 1 % administered dose.
